Literature values in patent publication US11089780B2, “Pendimethanlin microcapsules with a shell made of tetramethylxylylene diisocyanate and a polyamine with at least three amine groups” (BASF SE, priority 2015, dated 2021).

Conditions: at 25° C.

For CCC(CC)Nc1c([N+](=O)[O-])cc(C)c(C)c1[N+](=O)[O-] [Pendimethalin, 3,4-dimethyl-2,6-dinitro-N-pentan-3-yl-aniline], the Vapor pressure is listed as “about 2 mPa”.
